Biological target: T1, human ADRA2C receptor (Homo sapiens (Human), UniProt P18825)
Experiment: In vitro radioligand binding study, competition assay with [3H] rauwolscine (Eurofins Panlabs)
Conditions: calculated from IC50 and Kd with the Cheng Prusoff equation; [3H] rauwolscine competition; read-out: hARα2C Ki
Experimental: B-1 In Vitro Radioligand Binding Studies for Determination of the Dissociation Constants Ki at the Human Adrenoreceptor ADRA2C (Eurojins Panlabs Discovery Services, Taiwan, Ltd)
A competition assay based on [^3H] rauwolscine as radioliganden was used to determine the binding affinity of the test substances at the human ADRA2C receptor.
To configure the competition assay, the equilibrium dissociation constant Kd of the radioligand [^3H] rauwolscine was determined in a saturation experiment. To this end, homogenates of CHO-K1 cells recombinantly expressing the human ADRA2C receptor were incubated with increasing concentrations of the radiotracers for 1 h at 4° C. in binding buffer (50 mM Tris-HCl, 1 mM EDTA, pH 7.4). Unspecific binding was determined by addition of an excess of the not radioactively labelled ligand prazosin (10 μM). The radioactivity was determined in a scintiation counter.
The competition experiments were carried out in the presence of 0.5 nM [^3H] rauwolscine and increasing concentrations of the test substances to be characterized under the conditions described above.
From the IC50 value measured in the competition experiment and the Kd value from the saturation experiment, the equilibrium constant Ki of the inhibitor, which describes the affinity of the test substances to the receptor, was calculated using the Cheng Prusoff equation [Cheng Y, Prusoff W H. Relationship between the inhibition constant (Ki) and the concentration of inhibitor which causes 50 percent inhibition (ISO) of an enzymatic reaction. […] PMID 4202581 PMID: 4202581].

T1 sequence (P18825 whole entry): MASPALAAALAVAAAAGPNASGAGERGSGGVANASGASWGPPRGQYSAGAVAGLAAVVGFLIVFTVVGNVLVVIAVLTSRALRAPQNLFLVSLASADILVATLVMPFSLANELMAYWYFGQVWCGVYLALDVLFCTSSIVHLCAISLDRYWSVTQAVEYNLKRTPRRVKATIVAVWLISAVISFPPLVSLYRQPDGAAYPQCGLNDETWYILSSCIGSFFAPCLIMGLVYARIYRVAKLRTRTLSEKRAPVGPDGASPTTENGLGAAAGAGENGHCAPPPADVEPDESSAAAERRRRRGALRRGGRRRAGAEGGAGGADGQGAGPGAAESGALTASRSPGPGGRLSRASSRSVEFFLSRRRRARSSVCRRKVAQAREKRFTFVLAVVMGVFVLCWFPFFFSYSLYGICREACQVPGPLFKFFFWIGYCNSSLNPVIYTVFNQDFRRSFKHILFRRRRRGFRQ

Ki [nM]	Compound
2.3	CCOC1CCCN(C2CCN(c3ncc(C(=O)NCc4ncc(F)cc4F)s3)CC2)C1 (single isomer, unassigned) [Example 124, ent-N-[(3,5-Difluoropyridin-2-yl)methyl]-2-(3-ethoxy[1,4′-bipiperidin]-1′-yl)-1,3-thiazole-5-carboxamide]
24	C[C@@H]1CCCN(C2CCN(c3ncc(C(=O)NCc4ncc(F)cc4F)s3)CC2)C1 [Example 1, N-[(3,5-Difluoropyridin-2-yl)methyl]-2-[(3R)-3-methyl[1,4′-bipiperidin]-1′-yl]-1,3-thiazole-5-carboxamide]
56	O=C(NCc1ncc(F)cc1F)c1cnc(N2CCC(N3CCC[C@@H](CF)C3)CC2)s1 [Example 41, N-[(3,5-Difluoropyridin-2-yl)methyl]-2-[(3R)-3-(fluoromethyl)[1,4′-bipiperidin]-1′-yl]-1,3-thiazole-5-carboxamide]
2.8	O=C(NCc1ncc(F)cc1F)c1cnc(N2CCC(N3CCCC4(CC4)C3)CC2)s1 [Example 64, 2-[4-(5-Azaspiro[2.5]octan-5-yl)piperidin-1-yl]-N-[(3,5-difluoropyridin-2-yl)methyl]-1,3-thiazole-5-carboxamide]

Same assay, conditions: displacement of 0.5 nM [3H] rauwolscine; homogenates of CHO-K1 cells expressing human ADRA2C; 1 h, 4° C.; read-out: hARα2C IC50

IC50 [nM]	Compound
5.1	CCOC1CCCN(C2CCN(c3ncc(C(=O)NCc4ncc(F)cc4F)s3)CC2)C1 (single isomer, unassigned) [Example 124, ent-N-[(3,5-Difluoropyridin-2-yl)methyl]-2-(3-ethoxy[1,4′-bipiperidin]-1′-yl)-1,3-thiazole-5-carboxamide]
54	C[C@@H]1CCCN(C2CCN(c3ncc(C(=O)NCc4ncc(F)cc4F)s3)CC2)C1 [Example 1, N-[(3,5-Difluoropyridin-2-yl)methyl]-2-[(3R)-3-methyl[1,4′-bipiperidin]-1′-yl]-1,3-thiazole-5-carboxamide]
130	O=C(NCc1ncc(F)cc1F)c1cnc(N2CCC(N3CCC[C@@H](CF)C3)CC2)s1 [Example 41, N-[(3,5-Difluoropyridin-2-yl)methyl]-2-[(3R)-3-(fluoromethyl)[1,4′-bipiperidin]-1′-yl]-1,3-thiazole-5-carboxamide]
6.2	O=C(NCc1ncc(F)cc1F)c1cnc(N2CCC(N3CCCC4(CC4)C3)CC2)s1 [Example 64, 2-[4-(5-Azaspiro[2.5]octan-5-yl)piperidin-1-yl]-N-[(3,5-difluoropyridin-2-yl)methyl]-1,3-thiazole-5-carboxamide]

Biological target: T1, human ADRA2C receptor
Experiment: In vitro activity assay, inhibition of recombinant ADRA2C (CHO-K1 cells coexpressing Gαq and aequorin, noradrenaline-induced bioluminescence)
Assay type: cell-based
Conditions: inhibition of agonist (noradrenaline)-induced bioluminescence signal; some values are means of multiple determinations; read-out: ARα2C IC50
Experimental: B-2. In Vitro Activity Assay to Determine the Inhibition of Recombinant ADRA2C
The human ADRA2C receptor belongs to the G protein (guanine-dependent protein)-coupled receptors, the main function of which is the transduction of signals into the interior of the cell.
The investigations of the inhibition of the recombinant human ADRA2C receptors were carried out with stably transfected CHO-K1 cells coexpressing the Gαq protein and the calcium-sensitive photoprotein aequorin. In this recombinant system, binding of the agonists noradrenaline to the ADRA2C receptor leads, after activation of a signal cascade, to calcium release from intracellular stores, which is detected by the intracellular calcium sensor aequorin as a bioluminescent signal. The method is described in detail in the reference below. [Wunder F., Kalthof B., Muller T., Hueser J. Functional Cell-Based Assays in Microliter Volumes for Ultra-High Throughput Screening. Combinatorial Chemistry & High Throughput Screening, Volume 11, Number 7, 2008, pp. 495-504(10). doi.org/10.2174/138620708785204054]
The activity of the test substances was determined via their ability to inhibit the agonist-induced increase of the bioluminescence signal. The concentration which can block half of this signal increase is referred to as IC50. The IC50 value is calculated using the 4 parameter logistic function (Hill function):
Top=upper threshold, Bottom=lower threshold, Slope=slope, IC50=turning point

Compound	IC50 [nM]
C[C@@H]1CCCN(C2CCN(c3ncc(C(=O)NCc4cc(Cl)ccc4F)s3)CC2F)C1 (mixture of isomers) [Example 113, diamix-N-(5-Chloro-2-fluorobenzyl)-2-[(3R)-3′-fluoro-3-methyl[1,4′-bipiperidin]-1′-yl]-1,3-thiazole-5-carboxamide]	0.61
O=C(NCc1ncc(F)cc1F)c1cnc(N2CCC(N3CCCC(C4CC4)C3)CC2)s1 (racemic) [Example 137, 2-(3-cyclopropyl[1,4′-bipiperidin]-1′-yl)-N-[(3,5-difluoropyridin-2-yl)methyl]-1,3-thiazole-5-carboxamide]	19
O=C(NCc1ncc(F)cc1F)c1cnc(N2CCC(N3CCCC(C4CCC4)C3)CC2)s1 (racemic) [Example 138, 2-(3-cyclobutyl[1,4′-bipiperidin]-1′-yl)-N-[(3,5-difluoropyridin-2-yl)methyl]-1,3-thiazole-5-carboxamide]	6.5
COCCC1CCCN(C2CCN(c3ncc(C(=O)NCc4ncc(F)cc4F)s3)CC2)C1 (racemic) [Example 148, N-[(3,5-difluoropyridin-2-yl)methyl]-2-[3-(2-methoxyethyl)[1,4′-bipiperidin]-1′-yl]-1,3-thiazole-5-carboxamide]	1.3
CC(C)(C)C1CCCN(C2CCN(c3ncc(C(=O)NCc4ncc(F)cc4F)s3)CC2)C1 (racemic) [Example 149, 2-(3-tert-butyl[1,4′-bipiperidin]-1′-yl)-N-[(3,5-difluoropyridin-2-yl)methyl]-1,3-thiazole-5-carboxamide]	35
O=C(NCc1ncc(F)cc1F)c1cnc(N2CCCC(N3CCCC4(CC4)C3)CC2)s1 (racemic) [Example 153, rac-2-[4-(5-Azaspiro[2.5]octan-5-yl)azepan-1-yl]-N-[(3,5-difluoropyridin-2-yl)methyl]-1,3-thiazole-5-carboxamide]	23
C[C@@H]1CCCN(C2CCN(c3ncc(C(=O)NC[C@H](C)c4ccccc4)s3)CC2)C1 (relative stereo) [Example 83, rel-2-[(3R)-3-methyl[1,4′-bipiperidin]-1′-yl]-N-[(2R)-2-phenylpropyl]-1,3-thiazole-5-carboxamide]	98.1
Cc1ccc([C@@H](C)NC(=O)c2cnc(N3CCC(N4CCC[C@@H](C)C4)CC3)s2)cc1 (relative stereo) [Example 95, rel-2-[(3R)-3-methyl[1,4′-bipiperidin]-1′-yl]-N-[(1R)-1-(4-methylphenyl)ethyl]-1,3-thiazole-5-carboxamide]	800
CC(NC(=O)c1cnc(N2CCC(N3CCC[C@@H](C)C3)CC2)s1)c1cc(F)ccc1F (single isomer, unassigned) [Example 46]	8.3
C[C@@H]1CCCN(C2CCN(c3ncc(C(=O)NCc4cccc(C(F)(F)F)n4)s3)CC2)C1 [Example 32]	640
O=C(NCc1ncc(F)cc1F)c1cnc(N2CCC(N3CCC[C@@H](C(F)(F)F)C3)CC2)s1 [Example 43, N-[(3,5-Difluoropyridin-2-yl)methyl]-2-[(3R)-3-(trifluoromethyl)[1,4′-bipiperidin]-1′-yl]-1,3-thiazole-5-carboxamide]	261
CC(NC(=O)c1cnc(N2CCC(N3CCC[C@@H](C)C3)CC2)s1)c1cc(F)ccc1F (stereo partly drawn) [Example 47, N-[1-(2,5-Difluorophenyl)ethyl]-2-[(3R)-3-methyl[1,4′-bipiperidin]-1′-yl]-1,3-thiazole carboxamide]	25
C[C@@H]1CCCN(C2CCN(c3ncc(C(=O)Nc4ccc(F)cc4Cl)s3)CC2)C1 [Example 88, N-(2-chloro-4-fluorophenyl)-2-[(3R)-3-methyl[1,4′-bipiperidin]-1′-yl]-1,3-thiazole-5-carboxamide]	489
C[C@@H]1CCCN(C2CCN(c3ncc(C(=O)N(C)Cc4cccnc4)s3)CC2)C1 [Example 90, N-methyl-2-[(3R)-3-methyl[1,4′-bipiperidin]-1′-yl]-N-(pyridin-3-ylmethyl)-1,3-thiazole-5-carboxamide]	971
C[C@@H]1CCCN(C2CCN(c3nnc(C(=O)NCc4ncc(F)cc4F)s3)CC2)C1 [Example 152, N-[(3,5-difluoropyridin-2-yl)methyl]-5-[(3R)-3-methyl[1,4′-bipiperidin]-1′-yl]-1,3,4-thiadiazole-2-carboxamide]	660
O=C(NCc1ncc(F)cc1F)c1cnc(N2CCCC(N3CCCC4(C3)CC4(F)F)CC2)s1 (stereo not drawn) [Example 156, diamix-2-[4-(1,1-Difluoro-5-azaspiro[2.5]octan-5-yl)azepan-1-yl]-N-[(3,5-difluoropyridin-2-yl)-methyl]-1,3-thiazole-5-carboxamide]	36

Next, values leading:

IC50 [nM]	Compound
2.7	C[C@@H]1CCCN(C2CCN(c3nc(C(=O)NCc4ncc(F)cc4F)cs3)CC2F)C1 (single isomer, unassigned) [Example 157]
98	C[C@@H]1CCCN(C2CCN(c3nc(C(=O)NCc4ncc(F)cc4F)cs3)CC2F)C1 (single isomer, unassigned) [Example 158]
25	C[C@@H]1CCCN(C2CCN(c3nc(C(=O)NCc4ncc(F)cc4F)co3)CC2F)C1 (single isomer, unassigned) [Example 159]
435	C[C@@H]1CCCN(C2CCN(c3nc(C(=O)NCc4ncc(F)cc4F)co3)CC2F)C1 (single isomer, unassigned) [Example 160]
233	CC1CC(N2CCC[C@@H](C)C2)CCN1c1ncc(C(=O)NCc2ncc(F)cc2F)s1 (single isomer, unassigned) [Example 161]
810	CCC1CN(c2ncc(C(=O)NCc3ncc(F)cc3F)s2)CCC1N1CCC[C@@H](C)C1 (single isomer, unassigned) [Example 162]
480	CCC1CN(c2ncc(C(=O)NCc3ncc(F)cc3F)s2)CCC1N1CCC[C@@H](C)C1 (single isomer, unassigned) [Example 163]
24	CC1CN(c2ncc(C(=O)NCc3ncc(F)cc3F)s2)CCC1N1CCC[C@@H](C)C1 (single isomer, unassigned) [Example 164]
410	CC1CN(c2ncc(C(=O)NCc3ncc(F)cc3F)s2)CCC1N1CCC[C@@H](C)C1 (single isomer, unassigned) [Example 165]
